Measured values as given in patent publication US6489098B1, “Means and methods for monitoring nucleoside reverse transcriptase inhibitor antiretroviral therapy and guiding therapeutic decisions in the treatment of HIV/AIDS” (ViroLogic, Inc., priority 1998, dated 2002).
Where “and” joins values, the source holds several entries; their conditions need not be identical. Equal entries are not always repeated. Entries after “also recorded” stand apart in the source; their conditions may differ.

system: HIV-1 RT mutant resistance test vector 41 + 210 + 215; assay: Phenotypic susceptibility assay, site directed RTV 41 + 210 + 215; assay type: cell-based; conditions: RTV with 41 + 210 + 215; 3 replicates
Method: (§1) Resistance tests were carried out with resistance test vectors using two host cell types. Resistance test vector viral particles were produced by a first host cell (the resistance test vector host cell) that was prepared by transfecting a packaging host cell with the resistance test vector and the packaging expression vector. The resistance test vector viral particles were then used to infect a second host cell (the target host cell) in which the expression of the indicator gene is measured.
(§2) The resistance test vectors containing a functional luciferase gene cassette were constructed and host cells were transfected with the resistance test vector DNA. The resistant test vectors contained patient-derived reverse transcriptase and protease sequences that were either susceptible or resistant to the antiretroviral agents, such as nucleoside reverse transcriptase inhibitors, non-nucleoside reverse transcriptase inhibitors and protease inhibitors. The resistance test vector viral particles produced by transfecting the resistance test vector DNA into host cells, either in the presence or absence of protease inhibitors, were used to infect target host cells grown either in the absence of NRTI or NNRTI or In the presence of increasing concentrations of the drug. The amount of luciferase activIty produced in infected target host cells in the presence of drug was compared to the amount of luciferase produced in infected target host cells in the absence of drug. Drug resistance was measured as the amount of drug required to inhibit by 50% the luciferase activity detected in the absence of drug (Inhibitory concentration 50%, IC50). The IC50 values were determined by plotting percent drug inhibition vs. log 10 drug concentration.
(§3) Host cells were seeded in 10-cm-diameter dishes and were transfected several days after plating with resistance test vector plasmid DNA and the envelope expression vector. Transfections were performed using a calcium-phosphate precipitation procedure. The cell culture media containing the DNA precipitate was replaced with fresh medium, from one to 24 hours, after transfection. Cell culture media containing resistance test vector viral particles was harvested one to four days after transfection and was passed through a […] filter before being stored at −80° C. HIV capsid protein (p24) levels in the harvested cell culture media were determined by an EIA method as described by the manufacturer (SIAC; Frederick, Md.). Before infection, target cells (293 and 293/T) were plated in cell culture media. Control infections were performed using cell culture media from mock transfections (no DNA) or transfections containing the resistance test vector plasmid DNA without the envelope expression plasmid. One to three or more days after infectIon the media was removed and cell lysis buffer (Promega) was added to each well. Cell lysates were assayed for luciferase activity (FIG. 3). The inhibitory effect of the drug was determined using the following equation:
(§4) % luciferase inhibition=1−(RLUluc[drug]÷RLUluc)×100
(§5) where RLUluc [drug] is the relative light unit of luciferase activity in infected cells in the presence of drug and RLUluc is the Relative Light Unit of luciferase activity in infected cells in the absence of drug. IC50 values were obtained from the sigmoidal curves that were generated from the data by plotting the percent inhibition of luciferase activity vs. the log 10 drug concentration. The drug inhibition curves are shown in (FIG. 3).
(§6) Genotypic changes that are observed to correlate with changes in phenotypic patterns of drug susceptibility are evaluated by construction of resistance test vectors containing the specific mutation on a defined, wild-type (drug susceptible) genetic background. Mutations may be incorporated alone and/or in combination with other known drug resistance mutations that are thought to modulate the susceptibility of HIV to a certain drug or class of drugs. […]

Row | Structure (SMILES) | Average fold reduction in susceptibility [fold]
1 | Cc1cn([C@H]2C=C[C@@H](CO)O2)c(=O)[nH]c1=O [d4T, stavudine] | 1.94
2 | Cc1cn([C@H]2C[C@H](N=[N+]=[N-])[C@@H](CO)O2)c(=O)[nH]c1=O [AZT, zidovudine] | 56.14

system: HIV-1 RT mutant resistance test vector 41 + 62 + 69 + 75S + 210 + 215; assay: Phenotypic susceptibility assay, site directed RTV 41 + 62 + 69 + 75S + 210 + 215; assay type: cell-based; conditions: RTV with 41 + 62 + 69 + 75S + 210 + 215; 1 replicate
Method: as §1, §2, §3, §4, §5, §6

Row | Structure (SMILES) | Average fold reduction in susceptibility [fold]
3 | Cc1cn([C@H]2C=C[C@@H](CO)O2)c(=O)[nH]c1=O [d4T, stavudine] | 14.13
4 | Cc1cn([C@H]2C[C@H](N=[N+]=[N-])[C@@H](CO)O2)c(=O)[nH]c1=O [AZT, zidovudine] | >1000

system: HIV-1 RT mutant resistance test vector 41 + 184 + 215; assay: Phenotypic susceptibility assay, site directed RTV 41 + 184 + 215; assay type: cell-based; conditions: RTV with 41 + 184 + 215; 3 replicates
Method: as §1, §2, §3, §4, §5, §6

Row | Structure (SMILES) | Average fold reduction in susceptibility [fold]
5 | Cc1cn([C@H]2C=C[C@@H](CO)O2)c(=O)[nH]c1=O [d4T, stavudine] | 1.18
6 | Cc1cn([C@H]2C[C@H](N=[N+]=[N-])[C@@H](CO)O2)c(=O)[nH]c1=O [AZT, zidovudine] | 2.77

system: HIV-1 RT mutant resistance test vector 41 + 215 (M41L and T215Y); assay: Phenotypic susceptibility assay, site directed RTV 41 + 215; assay type: cell-based; conditions: RTV with 41 + 215; 4 replicates
Method: as §1, §2, §3, §4, §5, §6

Row | Structure (SMILES) | Average fold reduction in susceptibility [fold]
7 | Cc1cn([C@H]2C=C[C@@H](CO)O2)c(=O)[nH]c1=O [d4T, stavudine] | 1.61
8 | Cc1cn([C@H]2C[C@H](N=[N+]=[N-])[C@@H](CO)O2)c(=O)[nH]c1=O [AZT, zidovudine] | 17.82

system: HIV-1 RT mutant resistance test vector M41L-A62V-T69SSA-T215Y-RTV; assay: Phenotypic susceptibility assay, site directed RTV M41L+A62V+T69SSA+T215Y; assay type: cell-based; conditions: RTV with M41L+A62V+T69SSA+T215Y; addition of A62V to M41L+T69SSA+T215Y
Method: as §1, §2
as §3, with “Cell lysates were assayed for luciferase activity (FIG. 3).” left out
as §4
as §5, with “concentration.” for “concentration. The drug inhibition curves are shown in (FIG. 3).”
Mutations may be incorporated alone and/or in combination with other known drug resistance mutations that are thought to modulate the susceptibility of HIV to a certain drug or class of drugs. Mutations are introduced into the resistance test vector through any of the widely known methods for site-directed mutagenesis. In one embodiment of this invention the mega-primer PCR method for site-directed mutagenesis is used.

Row | Structure (SMILES) | effect on susceptibility (words)
9 | Cc1cn([C@H]2C=C[C@@H](CO)O2)c(=O)[nH]c1=O [d4T, stavudine] | did reduce d4T susceptibility more than the T69SSA mutation alone; also recorded: further reduction in susceptibility
10 | Cc1cn([C@H]2C[C@H](N=[N+]=[N-])[C@@H](CO)O2)c(=O)[nH]c1=O [AZT, zidovudine] | reduced AZT susceptibility more than the combination of M41L and T215Y mutations alone; also recorded: further reduction in susceptibility

system: HIV-1 RT mutant resistance test vector M41L+A62V+T69SSA+M184V+T215Y; assay: Phenotypic susceptibility assay, site directed RTV M41L+A62V+T69SSA+M184V+T215Y; assay type: cell-based; conditions: RTV with 41 + 62 + 69 + 184 + 215; 2 replicates
Method: as §1, §2, §3, §4, §5, §6

Row | Structure (SMILES) | Average fold reduction in susceptibility [fold]
11 | Cc1cn([C@H]2C=C[C@@H](CO)O2)c(=O)[nH]c1=O [d4T, stavudine] | 3.98
12 | Cc1cn([C@H]2C[C@H](N=[N+]=[N-])[C@@H](CO)O2)c(=O)[nH]c1=O [AZT, zidovudine] | 43.86

same assay, conditions: RTV with M41L+A62V+T69SSA+M184V+T215Y; addition of M184V to the 4 mutations

Row | Structure (SMILES) | effect on susceptibility (words)
13 | Cc1cn([C@H]2C=C[C@@H](CO)O2)c(=O)[nH]c1=O [d4T, stavudine] | no effect on the susceptibility to d4T; also recorded: did reduce d4T susceptibility more than the T69SSA mutation alone; also recorded: more susceptible
14 | Cc1cn([C@H]2C[C@H](N=[N+]=[N-])[C@@H](CO)O2)c(=O)[nH]c1=O [AZT, zidovudine] | increase in the susceptibility to AZT; also recorded: suppressed the reduced AZT susceptibility; also recorded: more susceptible

system: HIV-1 RT mutant resistance test vector A62V+T69SSA; assay: Phenotypic susceptibility assay, site directed RTV A62V+T69SSA; assay type: cell-based; conditions: RTV with 62 + 69 (A62V+T69SSA); 4 replicates
Method: as §1, §2, §3, §4, §5, §6

Row | Structure (SMILES) | Average fold reduction in susceptibility
15 | Cc1cn([C@H]2C=C[C@@H](CO)O2)c(=O)[nH]c1=O [d4T, stavudine] | 1.66 fold
16 | Cc1cn([C@H]2C[C@H](N=[N+]=[N-])[C@@H](CO)O2)c(=O)[nH]c1=O [AZT, zidovudine] | 6 fold and 7 fold and approximately six-fold and 6.87 fold

same assay, conditions: RTV with A62V+T69SSA, compared with T69SSA alone

Row | Structure (SMILES) | effect on susceptibility (words)
17 | Cc1cn([C@H]2C=C[C@@H](CO)O2)c(=O)[nH]c1=O [d4T, stavudine] | no effect on the susceptibility to d4T; also recorded: did not reduce d4T susceptibility more than the T69SSA mutation alone
18 | Cc1cn([C@H]2C[C@H](N=[N+]=[N-])[C@@H](CO)O2)c(=O)[nH]c1=O [AZT, zidovudine] | further reduce AZT susceptibility

system: HIV-1 RT mutant resistance test vector 41 + 69 + 184 + 215; assay: Phenotypic susceptibility assay, site directed RTV 41 + 69 + 184 + 215; assay type: cell-based; conditions: RTV with 41 + 69 + 184 + 215; 2 replicates
Method: as §1, §2, §3, §4, §5, §6

Row | Structure (SMILES) | Average fold reduction in susceptibility [fold]
19 | Cc1cn([C@H]2C=C[C@@H](CO)O2)c(=O)[nH]c1=O [d4T, stavudine] | 2.32
20 | Cc1cn([C@H]2C[C@H](N=[N+]=[N-])[C@@H](CO)O2)c(=O)[nH]c1=O [AZT, zidovudine] | 5.87

system: HIV-1 RT mutant resistance test vector A62V+T69SSA+V75I; assay: Phenotypic susceptibility assay, site directed RTV A62V+T69SSA+V75I; assay type: cell-based; conditions: RTV with 62 + 69 + 751 (A62V, T69SSA, V75I); 1 replicate
Method: as §1, §2, §3, §4, §5, §6

Row | Structure (SMILES) | Average fold reduction in susceptibility
21 | Cc1cn([C@H]2C=C[C@@H](CO)O2)c(=O)[nH]c1=O [d4T, stavudine] | 1.40 fold
22 | Cc1cn([C@H]2C[C@H](N=[N+]=[N-])[C@@H](CO)O2)c(=O)[nH]c1=O [AZT, zidovudine] | 2 fold and 0.71 fold

same assay, conditions: RTV with A62V+T69SSA+V75I

Row | Structure (SMILES) | effect on susceptibility (words)
23 | Cc1cn([C@H]2C=C[C@@H](CO)O2)c(=O)[nH]c1=O [d4T, stavudine] | did not reduce d4T susceptibility more than the T69SSA mutation alone
24 | Cc1cn([C@H]2C[C@H](N=[N+]=[N-])[C@@H](CO)O2)c(=O)[nH]c1=O [AZT, zidovudine] | completely suppressed the reduced AZT susceptibility; also recorded: completely suppressed the six-fold AZT resistance

system: HIV strains resistant to abacavir; assay: not given; conditions: cited from earlier work

Row | Structure (SMILES) | cross resistance of abacavir-resistant strains
25 | Cc1cn([C@H]2C=C[C@@H](CO)O2)c(=O)[nH]c1=O [d4T, stavudine] | not to d4T or ZDV
26 | Cc1cn([C@H]2C[C@H](N=[N+]=[N-])[C@@H](CO)O2)c(=O)[nH]c1=O [AZT, zidovudine] | not to d4T or ZDV
